Experimental data published in publication PMC8286840, “Identifying SARS-CoV-2 antiviral compounds by screening for small molecule inhibitors of Nsp3 papain-like protease” (Biochemical Journal, 2021).
Where a name gives a salt, the structure may show the parent alone. Read-outs that look alike come from different tables or passages of the source.

Tests used:
[1] = target: T1, SARS-CoV-2 PLpro (nsp3 1564–1878) (Severe acute respiratory syndrome coronavirus 2, UniProt P0DTD1); assay: biochemical; set-up: FRET-quenched peptide (Pro3) cleavage by PLpro, 10 min pre-incubation, slope over 20 min, normalised to no-compound control; settings: high concentration screen, read-out: % of control remaining
[2] = target: T1, SARS-CoV-2 PLpro (nsp3 1564–1878); assay: biochemical; set-up: FRET-quenched peptide (Pro3) cleavage by PLpro, 10 min pre-incubation, slope over 20 min, normalised to no-compound control; settings: low concentration screen, read-out: % of control remaining

Which remaining activity at 3.75 µM ([1]; Well no.=1497) does the source give for `CN1CCN(CCCN2c3ccccc3Sc3ccc(Cl)cc32)CC1` [Prochlorperazine dimaleate] here?
The remaining activity at 3.75 µM was 101%.

And the remaining activity at 1.25 µM ([2]; Well no.=1497)?
The remaining activity at 1.25 µM was 99.3%.

For `COC(=O)c1c(-c2cc(OC)c(OC)c(OC)c2)c2ccnc(OCc3ncccn3)c2c(=O)n1Cc1ccnc(C)c1` [T-0156], which remaining activity at 3.75 µM ([1]; Well no.=1230) is on record?
The remaining activity at 3.75 µM was 102%.

What about the remaining activity at 1.25 µM ([2]; Well no.=1230) of the same compound?
The remaining activity at 1.25 µM was 102%.

How did the remaining activity at 3.75 µM ([1]; Well no.=8822) turn out when `CCCc1cc(-c2nc(-c3ccc(C)cc3)cs2)ccn1` [Fatostatin HBr] was run?
The remaining activity at 3.75 µM was 92.8%.

And the remaining activity at 1.25 µM ([2]; Well no.=8822)?
The remaining activity at 1.25 µM was 94.2%.

How did the remaining activity at 3.75 µM ([1]; Well no.=7938) turn out when `NC(N)=NCCC[C@H](N)C(=O)NCC(=O)N[C@@H](CC(=O)O)C(=O)N[C@@H](CO)C(=O)O` [Arg-Gly-Asp-Ser] was run?
The remaining activity at 3.75 µM was 95.3%.

And the remaining activity at 1.25 µM ([2]; Well no.=7938)?
Its remaining activity at 1.25 µM is 95.5%.

Which results are given for `NC(=O)c1noc([C@H](CCCC2CCCCC2)CC(=O)NO)n1` [UK 383367]?
remaining activity at 3.75 µM ([1]; Well no.=8384): 90.6%; remaining activity at 1.25 µM ([2]; Well no.=8384): 90.4%

How did the remaining activity at 3.75 µM ([1]; Well no.=3587) turn out when `O=C1C[C@@H](c2ccccc2)Oc2cc(O)cc(O)c21` [Pinocembrin] was run?
The remaining activity at 3.75 µM was 98.4%.

And the remaining activity at 1.25 µM ([2]; Well no.=3587)?
The remaining activity at 1.25 µM was 99.6%.

How did the remaining activity at 3.75 µM ([1]; Well no.=5803) turn out when `CCCCCCCC/C=C\CCCCCCCC(=O)NCC(=O)O` [N-Oleoylglycine] was run?
Its remaining activity at 3.75 µM is 106%.

And the remaining activity at 1.25 µM ([2]; Well no.=5803)?
The remaining activity at 1.25 µM was 104%.

With `CCCCC1=NC2(CCCC2)C(=O)N1Cc1ccc(-c2ccccc2-c2nnn[nH]2)cc1` [Irbesartan] as the compound, how does the remaining activity at 3.75 µM ([1]; Well no.=8251) read?
The remaining activity at 3.75 µM was 105%.

What about the remaining activity at 1.25 µM ([2]; Well no.=8251) of the same compound?
Its remaining activity at 1.25 µM is 105%.

How did the remaining activity at 3.75 µM ([1]; Well no.=3208) turn out when `C[C@H]1C(=O)CC[C@@H]2[C@]1(C)CC[C@H]1[C@@]2(C)CC[C@@]2(C)[C@@H]3CC(C)(C)CC[C@]3(C)CC[C@]12C` [Friedelin] was run?
The remaining activity at 3.75 µM was 110%.

What about the remaining activity at 1.25 µM ([2]; Well no.=3208) of the same compound?
Its remaining activity at 1.25 µM is 109%.

`O=C(OCOC(=O)[C@H]1CCCN1C(=O)CCCCC(=O)N1CCC[C@@H]1C(=O)OCOC(=O)OC1CCOCC1)OC1CCOCC1` [amyloid P-IN-1] was tested. Which remaining activity at 3.75 µM ([1]; Well no.=7788) did it give?
Its remaining activity at 3.75 µM is 105%.

And the remaining activity at 1.25 µM ([2]; Well no.=7788)?
Its remaining activity at 1.25 µM is 103%.

For `CC[C@H](C)[C@H](NC(=O)[C@H](Cc1ccc(O)cc1)NC(=O)[C@@H](NC(=O)[C@H](CCCNC(=N)N)NC(=O)[C@@H](N)CC(=O)O)C(C)C)C(=O)N[C@@H](Cc1c[nH]cn1)C(=O)N1CCC[C@H]1C(=O)O` [Angiotensin (1-7)], which remaining activity at 3.75 µM ([1]; Well no.=6176) is on record?
Its remaining activity at 3.75 µM is 96.5%.

What about the remaining activity at 3.75 µM ([1]; Well no.=8368) of the same compound?
The remaining activity at 3.75 µM was 96.1%.

And the remaining activity at 1.25 µM ([2]; Well no.=6176)?
Its remaining activity at 1.25 µM is 96.1%.

What about the remaining activity at 1.25 µM ([2]; Well no.=8368) of the same compound?
Its remaining activity at 1.25 µM is 99.7%.

With `NC(N)=N[C@@H](CCC(=O)O)C(=O)O` [alpha-Guanidinoglutaric acid] as the compound, how does the remaining activity at 3.75 µM ([1]; Well no.=669) read?
Its remaining activity at 3.75 µM is 96.1%.

What about the remaining activity at 1.25 µM ([2]; Well no.=669) of the same compound?
Its remaining activity at 1.25 µM is 93.5%.

For `Cc1cccc(/C=C/c2ccccc2)n1` [SIB 1893], which remaining activity at 3.75 µM ([1]; Well no.=1419) is on record?
Its remaining activity at 3.75 µM is 95.7%.

And the remaining activity at 1.25 µM ([2]; Well no.=1419)?
Its remaining activity at 1.25 µM is 96.6%.

Which results are given for `O=C1CCN(c2ccccc2)N1` [Phenidone]?
remaining activity at 3.75 µM ([1]; Well no.=3951): 101%; remaining activity at 1.25 µM ([2]; Well no.=3951): 103%

`CC(C)Nc1cccnc1N1CCN(C(=O)c2cc3cc(NS(C)(=O)=O)ccc3[nH]2)CC1` [Delavirdine mesylate] was tested. Which remaining activity at 3.75 µM ([1]; Well no.=1676) did it give?
The remaining activity at 3.75 µM was 101%.

What about the remaining activity at 1.25 µM ([2]; Well no.=1676) of the same compound?
Its remaining activity at 1.25 µM is 108%.

What does the source list for `CCN1CCN(c2ccc(Nc3cc(N(C)C(=O)Nc4c(Cl)c(OC)cc(OC)c4Cl)ncn3)cc2)CC1` [BGJ398 (NVP-BGJ398)]?
remaining activity at 3.75 µM ([1]; Well no.=5140): 99.3%; remaining activity at 1.25 µM ([2]; Well no.=5140): 97%

What does the source list for `CC(C)N(CCC(=O)c1ccc2ccccc2c1)Cc1ccccc1` [JAK3 Inhibitor IV]?
remaining activity at 3.75 µM ([1]; Well no.=2459): 93.9%; remaining activity at 1.25 µM ([2]; Well no.=2459): 94%

For `CC12CCC(CC1)C(C)(C)O2` [Eucalyptol], which remaining activity at 3.75 µM ([1]; Well no.=6874) is on record?
The remaining activity at 3.75 µM was 99.2%.

And the remaining activity at 1.25 µM ([2]; Well no.=6874)?
Its remaining activity at 1.25 µM is 99.2%.

Which remaining activity at 3.75 µM ([1]; Well no.=6918) does the source give for `C/C=C1\C(=O)C[C@H]2[C@@H]3CCC4=CC(=O)CC[C@]4(C)[C@H]3CC[C@]12C` [Guggulsterone] here?
The remaining activity at 3.75 µM was 99.7%.

What about the remaining activity at 1.25 µM ([2]; Well no.=6918) of the same compound?
The remaining activity at 1.25 µM was 103%.

How did the remaining activity at 3.75 µM ([1]; Well no.=4724) turn out when `COc1nc(C)nc(Cl)c1NC1=NCCN1` [Moxonidine] was run?
Its remaining activity at 3.75 µM is 92.3%.

What about the remaining activity at 1.25 µM ([2]; Well no.=4724) of the same compound?
Its remaining activity at 1.25 µM is 98.7%.

And the remaining activity at 1.25 µM ([2]; Well no.=7423)?
The remaining activity at 1.25 µM was 106%.

How did the remaining activity at 3.75 µM ([1]; Well no.=646) turn out when `CC[C@H]1CN2CCc3cc(OC)c(OC)cc3[C@@H]2C[C@@H]1C[C@H]1NCCc2cc(OC)c(OC)cc21` [Emetine dihydrochloride hydrate] was run?
Its remaining activity at 3.75 µM is 103%.

And the remaining activity at 1.25 µM ([2]; Well no.=646)?
Its remaining activity at 1.25 µM is 104%.

Which results are given for `CC/C=C\C/C=C\C/C=C\C/C=C\C/C=C\CCCC(=O)O` [Eicosapentaenoic acid]?
remaining activity at 3.75 µM ([1]; Well no.=4251): 101%; remaining activity at 3.75 µM ([1]; Well no.=4448): 96.1%; remaining activity at 3.75 µM ([1]; Well no.=7315): 103%; remaining activity at 1.25 µM ([2]; Well no.=4251): 103%; remaining activity at 1.25 µM ([2]; Well no.=4448): 92.3%; remaining activity at 1.25 µM ([2]; Well no.=7315): 108%

Which remaining activity at 3.75 µM ([1]; Well no.=490) does the source give for `O=C1CN(/N=C/c2ccc(-c3ccc([N+](=O)[O-])cc3)o2)C(=O)N1` [Dantrolene sodium] here?
Its remaining activity at 3.75 µM is 103%.

What about the remaining activity at 1.25 µM ([2]; Well no.=490) of the same compound?
The remaining activity at 1.25 µM was 103%.

Which remaining activity at 3.75 µM ([1]; Well no.=2502) does the source give for `Cc1cc(Nc2nc(-c3ccccc3)nc3ccccc23)n[nH]1` [GSK-3 Inhibitor XIII] here?
The remaining activity at 3.75 µM was 96.8%.

What about the remaining activity at 1.25 µM ([2]; Well no.=2502) of the same compound?
Its remaining activity at 1.25 µM is 94.8%.

How did the remaining activity at 3.75 µM ([1]; Well no.=4638) turn out when `Cc1ncc(C[n+]2csc(CCO)c2C)c(N)n1` [Thiamine HCl (Vitamin B1)] was run?
The remaining activity at 3.75 µM was 96.6%.

What about the remaining activity at 1.25 µM ([2]; Well no.=4638) of the same compound?
The remaining activity at 1.25 µM was 94.5%.

What does the source list for `O=C(Nc1nc2ccc(NC(=O)C34C[C@H]5C[C@@H](C3)C[C@@H](C4)C5)cc2s1)c1ccccc1` [NVP-231]?
remaining activity at 3.75 µM ([1]; Well no.=5410): 86.5%; remaining activity at 1.25 µM ([2]; Well no.=5410): 95.2%

`NCC(CC(=O)O)c1ccc(Cl)cc1` (racemic) was tested. Which remaining activity at 3.75 µM ([1]; Well no.=31) did it give?
Its remaining activity at 3.75 µM is 97.2%.

What about the remaining activity at 1.25 µM ([2]; Well no.=31) of the same compound?
Its remaining activity at 1.25 µM is 96.2%.

Which remaining activity at 3.75 µM ([1]; Well no.=5620) does the source give for `O=C(O)c1ccccc1C(=O)Nc1ccc(-c2ccccc2)cc1` [Kartogenin] here?
Its remaining activity at 3.75 µM is 96.3%.

And the remaining activity at 1.25 µM ([2]; Well no.=5620)?
The remaining activity at 1.25 µM was 91.3%.

`Cc1cc(Cn2cnc3c2C[C@@H](C(=O)O)N(C(=O)C(c2ccccc2)c2ccccc2)C3)ccc1N(C)C` [PD 123319 (ditrifluoroacetate)] was tested. Which remaining activity at 3.75 µM ([1]; Well no.=7145) did it give?
Its remaining activity at 3.75 µM is 96.9%.

And the remaining activity at 3.75 µM ([1]; Well no.=8406)?
Its remaining activity at 3.75 µM is 92.3%.

And the remaining activity at 1.25 µM ([2]; Well no.=7145)?
Its remaining activity at 1.25 µM is 97.1%.

And the remaining activity at 1.25 µM ([2]; Well no.=8406)?
The remaining activity at 1.25 µM was 94.2%.

Which results are given for `C[C@@H]1C(=O)O[C@H]2C[C@@]34[C@H]5C[C@@H](C(C)(C)C)[C@]36[C@@H](OC(=O)[C@@H]6O)O[C@@]4(C(=O)O5)[C@]21O` [Ginkgolide A]?
remaining activity at 3.75 µM ([1]; Well no.=1908): 96.1%; remaining activity at 3.75 µM ([1]; Well no.=3613): 104%; remaining activity at 1.25 µM ([2]; Well no.=1908): 98.7%; remaining activity at 1.25 µM ([2]; Well no.=3613): 106%

What does the source list for `CC(N)Cc1c[nH]c2ccc(OCc3cccs3)cc12` (centres unmarked) [BW 723C86]?
remaining activity at 3.75 µM ([1]; Well no.=279): 98.9%; remaining activity at 1.25 µM ([2]; Well no.=279): 98.7%

What does the source list for `CCOC(=O)C1=C(N)Oc2ccc(Br)cc2[C@H]1[C@H](C#N)C(=O)OCC` [HA14-1]?
remaining activity at 3.75 µM ([1]; Well no.=5007): 101%; remaining activity at 3.75 µM ([1]; Well no.=6296): 102%; remaining activity at 1.25 µM ([2]; Well no.=5007): 105%; remaining activity at 1.25 µM ([2]; Well no.=6296): 101%
